What was measured:
[1] = tested on: ATDC5 micromasses; experiment: Glycosaminoglycan/proteoglycan quantification (Alcian blue staining) in ATDC5 micromasses; type: cell-based, mouse
Procedure: Mouse chondrogenic ATDC5 cells (cartilage-specific chondrogenic strain) were cultured until confluent in maintenance medium containing 1:1 Dulbecco's modified Eagle's medium (DMEM): Ham's F-12 mix (Gibco) supplemented with 1% antibiotic (AB, Penicillin-Streptomycin, Gibco), 5% fetal bovine serum (FBS) (Gibco) and enriched with […] human transferrin (Sigma) and 30 nM sodium selenite (Sigma). Cells were trypsinized, washed and resuspended at 2.10^7 cells/mL in a chondrogenic medium made of maintenance medium enriched by 1× of ITS premix (resulting in 10 μg/mL insulin, 10 μg/mL human transferrin and 30 nM sodium selenite) (Life technologies). One droplet of cell suspension (10 μL) was placed at the center of each well of a 24-well plate. Cells were allowed to adhere for 2 h at 37° C., followed by addition of 500 μL chondrogenic medium supplemented. […] After 14 days, induction of hypertrophic differentiation and mineralization was induced by the mineralization medium made of α-MEM medium (Gibco) containing 1% AB, 5% FBS, 5 μg/ml human transferrin, 1× of ITS premix, 50 μg/ml ascorbic acid-2-phosphate (AA) (Sigma) and 10 mM β-glycerophosphate (BGP) (Sigma). […] Micromasses were collected at time points 1, 7, 14 21 and 28 days. Each time point was processed in three technical replicates. The medium was changed every other day. […] The genes of interest were articular chondrocyte markers (aggrecan, type 2 collagen (col2a1)), YAP/TAZ target genes (ctgf, ankrd) and pro-catabolic enzymes involved in the pathophysiology of OA (mmp3, mmp13).
Micromasses were washed with PBS and fixed with 95% ice-cold ethanol for 30 min at 4° C. for staining. After washing with distilled water, micromasses were stained with Alcian Blue (0.1% Alcian Blue 8GX, (Sigma)), washed three times with distilled water to remove unbound staining and air-dried.

[2] = tested on: Wnt/β-catenin pathway; experiment: Western blot of Wnt/β-catenin pathway activation in ATDC5 micromasses; type: cell-based, mouse; conditions: PEP16 at 100 and 300 ng/mL; day 1, 7, 14, 21; during chondrogenesis
Procedure: Mouse chondrogenic ATDC5 cells (cartilage-specific chondrogenic strain) were cultured until confluent in maintenance medium containing 1:1 Dulbecco's modified Eagle's medium (DMEM): Ham's F-12 mix (Gibco) supplemented with 1% antibiotic (AB, Penicillin-Streptomycin, Gibco), 5% fetal bovine serum (FBS) (Gibco) and enriched with […] human transferrin (Sigma) and 30 nM sodium selenite (Sigma). Cells were trypsinized, washed and resuspended at 2.10^7 cells/mL in a chondrogenic medium made of maintenance medium enriched by 1× of ITS premix (resulting in 10 μg/mL insulin, 10 μg/mL human transferrin and 30 nM sodium selenite) (Life technologies). One droplet of cell suspension (10 μL) was placed at the center of each well of a 24-well plate. Cells were allowed to adhere for 2 h at 37° C., followed by addition of 500 μL chondrogenic medium supplemented. […] After 14 days, induction of hypertrophic differentiation and mineralization was induced by the mineralization medium made of α-MEM medium (Gibco) containing 1% AB, 5% FBS, 5 μg/ml human transferrin, 1× of ITS premix, 50 μg/ml ascorbic acid-2-phosphate (AA) (Sigma) and 10 mM β-glycerophosphate (BGP) (Sigma). […] Micromasses were collected at time points 1, 7, 14 21 and 28 days. Each time point was processed in three technical replicates. The medium was changed every other day. […]

[3] = tested on: 7×TCF/LEF response elements (Super 8×TOPFlash reporter); experiment: Promoter activation assay, Super 8×TOPFlash luciferase reporter in ATDC5 cells stimulated with Wnt3a; type: cell-based, mouse; conditions: peptide at 300 ng/ml; 10 or 100 ng/mL recombinant Wnt3a; 24 h
Procedure: (§2) Results were normalized by-cotransfecting each of the above plasmid with the tyrosine kinase-renilla luciferase plasmid (Promega). Transfections were carried out using the Dharmafect kb transfection reagent (Fisher Scientific). Briefly, reporter plasmids and transfection reagent were diluted in serum-free medium, and then the diluted Dharmafect kb was added to the plasmids for an incubation time of 10 minutes at room temperature. During that time, cells were rinsed with PBS and were placed in fresh maintenance medium. When incubation was over, the mixture of transfection reagent-plasmids was dispensed in each well. Stimulations (with Wnt3a and/or PEP16 and/or PEP16bis) were carried out the next day.

[4] = tested on: mouse articular chondrocytes; experiment: qRT-PCR relative expression of genes of interest in mouse articular chondrocytes; type: cell-based
Procedure: Mouse articular chondrocyte (MACs) were isolated from femoral heads by enzymatic digestion of whole femoral head caps. Samples were washed three times in 1% AB/phosphate buffered saline (PBS) and incubated with 2 mg/ml pronase (Roche)/DMEM-F12 at 37° C. for 1 h at slow rotation 100 rpm followed by a 3 h incubation with 1.5 mg/ml collagenase B (Roche)/DMEM-F12 at 37° C. Cells were seeded at 1×10^6 cells/[…], and cultured for 7 to 14 days in growth medium DMEM-F12, containing 1% AB (Gibco), 10% FBS (Gibco) and 5% L-glutamine (Thermoscientific). Passage 1 cells were utilized for the experiments. The culture supernatants were then harvested in order to perform MMP13 enzymatic activity assay. The evaluation of the expression of genes of interest included articular chondrocyte markers (aggrecan, type 2 collagen (col2a1)), YAP/TAZ target genes (ankrd) and pro-catabolic enzyme involved in the pathophysiology of OA (mmp3).
(§1) Total RNA was isolated using the Nucleospin RNA II kit (Macherey-Nagel) and reverse-transcribed using the MMLV reverse transcriptase (Thermo Fisher Scientific) following the manufacturers' instructions. The iTaq SYBR green qPCR master mix (BioRad) was used to assess the mRNA expression of target genes of interest. Primer sequences can be provided upon request. The following PCR conditions were used: 1 minute at 95° C., 40 cycles of 15 sec of denaturation at 95° C., followed by 1 minute of annealing-elongation at 60° C. Melting curve analysis was performed to determine the amplification of the specific product. Results were expressed using the comparative threshold method and were normalized to housekeeping gene PPIA (Peptidylprolyl Isomerase A) mRNA level for ATDC5 cells and MACs, or normalized to housekeeping gene S29 (ribosomal protein S29) mRNA level for MC3T3-E1 cells. The Via7 real-time PCR system (Thermo Fisher Scientific) was used for qRT-PCR measurements.

[5] = tested on: MMP13; experiment: MMP13 enzymatic activity in culture supernatants of human articular cartilage explants (osteoarthritis); type: cell-based; conditions: PEP16 at 300 ng/mL for 7 days (3 stimulations); explants from 3 patients with end-stage osteoarthritis
Procedure: Explants of human articular cartilage were obtained from total knee replacement surgeries, from the orthopedic department from the CHRU of Nancy (Pr. Didier Mainard). Samples were washed three times in 1% AB/PBS and incubated for 24 h in growth medium (DMEM-F12, containing 1% AB (Gibco), 10% FBS (Gibco) and 5% L-glutamine (Thermoscientific). Explants were then stimulated with PEP16 at the concentration of 300 ng/ml during 7 days. The culture supernatants were then harvested in order to perform MMP13 enzymatic activity assay.
The MMP13 enzymatic activity was assessed using the MMP13 fluorogenic substrate (Merck Millipore). Briefly, culture supernatants harvested at the end of the different experiments were mixed with 1.5 mM of 4-aminophenylmercuric acetate, and incubated for 1 h at 37° C., in order to turn every pro-MMPs into active MMPs. Then, the fluorogenic substrate was added, and the mixture was incubated for 3 h at 37° C. Fluorescence was evaluated using the following parameters, excitation 325 nm and emission 393 nm, on the Varioskan Flash device (Thermo Fisher Scientific). Recombinant human MMP13 was used as a positive control (Merck Millipore). Negative control consisted in growth medium.

[6] = tested on: MC3T3-E1 cells; experiment: qRT-PCR relative expression of genes of interest in MC3T3-E1 cells (osteogenic differentiation); type: cell-based, mouse
Description: Each time point was processed in three technical replicates. The medium was changed every two days.
as §1
Briefly, MC3T3-E1 cells were differentiated during 14 days as mentioned previously. […] In the same experiment, we also used MC3T3-E1 cells stably overexpressing the NTN domain. Treated cells and NTN overexpressing cells were compared to control cells (CTL).
RNA was isolated and qPCR was performed for ANKRD (YAP/TAZ target gene, indicator of the pathway activity) (FIG. 21).

[7] = tested on: 8×YAP response elements (8×GTIIC reporter); conditions: PEP16 at 30 ng/ml; 24 h
Procedure: as §2

[8] = tested on: alkaline phosphatase; conditions: 300 ng/ml, 1000 ng/ml; day 1 and day 21; vs CTL
Procedure: MC3T3-E1 cells were differentiated during 21 days as mentioned previously. […] Treated cells were compared to cells without any peptide stimulation (CTL).
We also assessed the specific alkaline phosphatase activity (μmol de para-nitrophenol/min/mg of protein). To that goal, we lysed the cells using 300 μL of a buffer containing 0.2 M Tris-Base, 1.6 mM MgCl2 pH 8.1 and 1% Triton X-100. Samples were then placed into tubes and put on ice for 30 min. During this time, we alternated periods of 30 sec vortex and 5 min on ice. Then, samples were sonicated, and centrifugated for 15 min at 13 000 g, 4° C. Supernatant was collected, and total protein concentration was evaluated using bicinchoninic acid assay.
Alkaline phosphatase activity was measured by placing the harvested supernatants in para-nitrophenyl phosphate (pNPP) solution. The alkaline phosphatase will cleave this substrate and generate para-nitrophenol (pNP).
A solution of 4 mg/mL of pNPP is prepared in buffer A (0.1 M glycine pH 10.5, 0.11% (m/v) Zinc acetate and 0.011% magnesium chloride (m/v)). […]
Absorbance is read at 410 nm on a Varioskan Flash apparatus. Alkaline phosphatase activity is calculated based on the standard curve (equation A410=a×quantity(ρNP)+b) with the following formula: activity=((A(410 nm)−b)×reaction volume)/(a×sample volume×reaction time)

[9] = PEP16 at 300 ng/mL and wnt3a at 100 ng/mL, 24 and 48 h
[10] = PEP16 at 100 or 300 ng/mL, day 7, 14, 21, normalized with S29

Sequence: DRLGKKVKRWDMKLRH (PEP16)
- proteoglycans deposition in the extracellular matrix (Alcian blue, absorbance 650 nm) ([1]; 300 ng/ml, 14 days, vs control cells): significantly increase the proteoglycans deposition
- glycosaminoglycans quantification (accumulation in the extracellular matrix) ([1]; PEP16 at 30, 100, 300 ng/mL, Alcian blue at day 28, blue pixels and biochemical quantification): significantly increased the accumulation of glycosaminoglycans
- Wnt/β-catenin pathway activation (active protein form over total protein form) [2]: reduced in the activation of the Wnt/β-catenin pathway
- activity of the canonical Wnt pathway in the Super TOPFlash luciferase reporter system (Firefly/renilla ratio) [3]: significantly reduce the activity
- expression of Ankrd, a target gene of the Hippo/YAP/TAZ pathway ([4]; 300 ng/mL, 12 h of stimulation): capable of reducing the expression
- expression of MMP3 induced by Wnt3a ([4]; 300 ng/mL, wnt3a at 100, 50, 30 ng/mL, 24 h of stimulation): counteract the inductive effects of Wnt3a
- relative expression level of aggrecan (decrease induced by Wnt3a) [4, 9]: had a tendancy to counteract
- relative expression level of col2a1 (type 2 collagen; decrease induced by Wnt3a) [4, 9]: had a tendancy to counteract
- increase of NGF induced by Wnt3a ([4]; PEP16 with Wnt3a, data not shown): had a tendancy to counteract
- MMP13 enzymatic activity in culture supernatant [5]: capable of reducing the enzymatic activity
- expression of ANKRD (YAP/TAZ target gene) ([6]; PEP16 at 300 ng/ml or cells stably overexpressing the NTN domain, D1 and D14, vs control cells): managed to do so
- relative expression level of osteocalcin [6, 10]: favoured the induction of the expression
- relative expression level of osterix [6, 10]: favoured the induction of the expression
- activity of the Hippo/YAP/TAZ pathway in a luciferase-type reporter system (Firefly/renilla ratio) [7]: significantly reduced the activity
- specific alkaline phosphatase activity [8]: tended to increase the alkaline phosphatase activity

Reference: patent US20230183303A1, “Therapeutic Potential of Peptides from the "Netrin-Like" Domain of the FRZB Protein” (Université de Lorraine, priority 2020, published 2023)
